According to patent publication US5672472A, “Synthetic unrandomization of oligomer fragments” (ISIS Pharmaceuticals, Inc., priority 1994, dated 1997):

Experiments:
ras 47-mer stem/loop RNA = assay: Gel-shift assay of random 2'-O-methyl oligonucleotide sets binding to ras RNA target; conditions: for Kd: Table 3, 2'-O-methyl sets, ras RNA about 10 pM, 100 mM NaCl, 10 mM MgCl2, 4 h at 37° C., read-out: KD (set KD); for binding in gel shift (FIG. 2B) / shift of the target: Round 2; for binding in gel shift (FIG. 2B): sets at 1 and 10 μM
target protein = assay: Gel shift assay of anion-exchange subfractions of oligonucleotide sets; assay type: binding; conditions: first round; sets subfractionated by charge
Protocol: An oligonucleotide analog group comprising four sets of oligonucleotides eight positions in length is prepared in accordance with Examples 3 and 6 wherein each of the sets has a different one of adenins, guanine, thymidine and cytosine in the 5th position, and the rest of the positions are randomized to provide the group: NNNNANNN, NNNNGNNN, NNNNTNNN, and NNNNCNNN. Each set is subfractionated by charge with an anion exchange column. Each subfraction is tested for affinity for the target protein by gel shift assay. […] In a further round, the 5th position is fixed to contain an adenins in the 5th position, and each set has a different nucleotide in the fourth position to provide the group NNNAANNN, NNNTANNN, NNNGANNN, and NNNCANNN. The sets are again subfractionated by charge with an anion exchange column and the subfractions are tested for affinity for the target protein by gel shift assay. The steps are repeated until each position is determined.

HIV tat protein = assay: Binding of oligonucleotide groups to HIV tat protein; conditions: Example 27
protein CD4 = assay: Gel shift of 5' end labeled oligonucleotide groups with CD4; assay type: binding; conditions: for binding to the protein CD4: 100 pmoles labeled group, FIG. 7

Sequence: NNCNCNCNN [NNXNCNCNN X=C]
- shift of the target (FIG. 2C) (ras 47-mer stem/loop RNA; Round 3, sets at 0.1 and 1 μM): greater than 50%
- Kd (ras 47-mer stem/loop RNA): 0.5 µM

Sequence: NNNNANNN [Set A]
- binding affinity of subfraction for the target protein (target protein): highest binding affinity

Sequence: NNNNANNNN [NNNNXNNNN X=A]
- shift of ras target (FIG. 2A) (ras 47-mer stem/loop RNA; Round 1, 100 uM): slight shift
- Kd (ras 47-mer stem/loop RNA): 22 µM

Sequence: NNNNCNANN [NNNNCNXNN X=A]
- binding in gel shift (FIG. 2B) (ras 47-mer stem/loop RNA): minimal binding
- Kd (ras 47-mer stem/loop RNA): > 10 µM

Sequence: NNNNCNCNN [NNNNCNXNN X=C]
- shift of the target (ras 47-mer stem/loop RNA; 1 μM): > 25%
- shift of the target (ras 47-mer stem/loop RNA; 10 μM): about 50%
- Kd (ras 47-mer stem/loop RNA): 4 µM

Sequence: NNNNCNGNN [NNNNCNXNN X=G]
- binding in gel shift (FIG. 2B) (ras 47-mer stem/loop RNA): minimal binding
- Kd (ras 47-mer stem/loop RNA): > 10 µM

Sequence: NNNNCNNNN [NNNNXNNNN X=C]
- shift of the target to the bound form (ras 47-mer stem/loop RNA; Round 1, 50 uM oligonucleotide concentration): more than 50%
- Kd (ras 47-mer stem/loop RNA): 10 µM

Sequence: NNNNGNNNN [NNNNXNNNN X=G]
- binding in gel shift (FIG. 2A) (ras 47-mer stem/loop RNA; Round 1, sets at 5, 10, 50 and 100 μM): no binding
- Kd (ras 47-mer stem/loop RNA): > 100 µM

Sequence: NNNNTNNNN
- binding against the tat protein (HIV tat protein): Binding has been observed
- binding to the protein CD4 (protein CD4; listed as phosphorothioate oligonucleotide): binding of the oligonucleotide to the protein
- binding affinity for CD4 (FIG. 7 legend) (protein CD4; 100 pmoles, visible at 0.5 and 1 μG CD4, presence and absence of dIdC): exhibited binding

Sequence: NNNNTNNNN [2'-O-methyl set]
- binding to the protein CD4 (protein CD4): No binding
